Experimental data published in ChEMBL document CHEMBL1148573, “Design, synthesis, and binding affinities of potential positron emission tomography (PET) ligands for visualization of brain dopamine D3 receptors” (J Med Chem, 2006).

How the values were obtained:
[1] = Apparent permeability assessed by Caco-2 layer assay; type: ADME, cell-based; settings: human
D(2) dopamine receptor = D(2) dopamine receptor (Homo sapiens, UniProt P14416); experiment: biochemical
Description: Displacement of [3H]spiroperidol from cloned human dopamine receptor D2(long) expressed in rat C6 glioma cells

[2] = Partition coefficient measured; type: physicochemical; settings: octanol/water
D(3) dopamine receptor = D(3) dopamine receptor (Homo sapiens, UniProt P35462); experiment: biochemical
D(3) dopamine receptor, sequence (P35462 whole entry): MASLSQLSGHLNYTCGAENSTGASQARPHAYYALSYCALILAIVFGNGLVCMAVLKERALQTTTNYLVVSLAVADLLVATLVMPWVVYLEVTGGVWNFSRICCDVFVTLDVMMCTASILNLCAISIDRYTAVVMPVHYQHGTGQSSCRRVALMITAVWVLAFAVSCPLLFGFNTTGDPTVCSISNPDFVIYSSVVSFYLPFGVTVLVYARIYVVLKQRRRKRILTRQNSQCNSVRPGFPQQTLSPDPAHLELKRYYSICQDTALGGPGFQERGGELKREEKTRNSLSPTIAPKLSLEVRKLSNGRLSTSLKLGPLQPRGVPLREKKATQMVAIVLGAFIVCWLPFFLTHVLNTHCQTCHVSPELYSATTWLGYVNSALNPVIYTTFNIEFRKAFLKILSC
Description: Displacement of [3H]spiroperidol from cloned human dopamine receptor D3 expressed in CHO cells

[3] = Distribution coefficient at pH 7.4; type: physicochemical; settings: octanol/water

D(2) dopamine receptor, sequence (P14416 whole entry): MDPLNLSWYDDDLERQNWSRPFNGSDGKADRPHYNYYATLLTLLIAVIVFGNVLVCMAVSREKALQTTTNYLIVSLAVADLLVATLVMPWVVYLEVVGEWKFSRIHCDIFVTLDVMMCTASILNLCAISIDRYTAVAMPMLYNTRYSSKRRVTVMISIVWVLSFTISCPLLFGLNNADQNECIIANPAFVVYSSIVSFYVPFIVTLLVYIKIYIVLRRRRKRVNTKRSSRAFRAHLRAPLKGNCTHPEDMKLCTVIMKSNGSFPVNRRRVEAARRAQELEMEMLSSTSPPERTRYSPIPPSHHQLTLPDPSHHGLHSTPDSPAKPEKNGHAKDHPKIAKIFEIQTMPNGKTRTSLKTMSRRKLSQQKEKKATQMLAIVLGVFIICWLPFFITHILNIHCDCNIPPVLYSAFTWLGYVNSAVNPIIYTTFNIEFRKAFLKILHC

## COc1ccc2onc(N3CCN(CCCCNC(=O)c4ccc(-n5ccnc5)cc4)CC3)c2c1
[1]
  Papp: 6.56 ×10⁻⁶ cm/s
D(2) dopamine receptor
  Ki: > 750 nM
[2]
  logP: 2.63
D(3) dopamine receptor
  Ki: 22.6 nM
[3]
  logD: 2.42

## COc1ccc2onc(N3CCN(CCCCNC(=O)c4cc5cccc(OC)c5o4)CC3)c2c1
D(2) dopamine receptor
  Ki: > 750 nM
D(3) dopamine receptor
  Ki: 98 nM

## COc1cccc2cc(C(=O)NCCCCN3CCN(c4[nH]nc5ccccc45)CC3)oc12
D(2) dopamine receptor
  Ki: 56.6 nM
D(3) dopamine receptor
  Ki: 127 nM

## COc1ccc2onc(N3CCN(CCCCNC(=O)c4cc5ccccc5oc4=O)CC3)c2c1
D(2) dopamine receptor
  Ki: > 750 nM
D(3) dopamine receptor
  Ki: > 2700 nM

## COc1ccc2oc(N3CCN(CCCCNC(=O)c4cc5cccc(OC)c5o4)CC3)nc2c1
D(2) dopamine receptor
  Ki: > 750 nM
D(3) dopamine receptor
  Ki: > 8500 nM

## COc1ccc2onc(N3CCN(CCCCNC(=O)c4cccc(-c5noc(C)n5)c4)CC3)c2c1
D(2) dopamine receptor
  Ki: > 1000 nM
D(3) dopamine receptor
  Ki: 1280 nM

## COc1cccc2cc(C(=O)NCCCCN3CCN(c4cccc5nccnc45)CC3)oc12
D(2) dopamine receptor
  Ki: 1250 nM
D(3) dopamine receptor
  Ki: 262 nM

## COc1ccccc1N1CCN(CCCCNC(=O)c2ccc3nonc3c2)CC1
D(2) dopamine receptor
  Ki: > 1000 nM
D(3) dopamine receptor
  Ki: 58.5 nM

## COc1ccc2onc(N3CCN(CCCCNC(=O)c4ccc(N5CCOCC5)cc4)CC3)c2c1
[1]
  Papp: 36.3 ×10⁻⁶ cm/s
D(2) dopamine receptor
  Ki: > 750 nM
[2]
  logP: 3.16
D(3) dopamine receptor
  Ki: 38 nM
[3]
  logD: 2.96

## COc1ccccc1N1CCN(CCCCNC(=O)c2cc3ccccc3oc2=O)CC1
D(2) dopamine receptor
  Ki: 146 nM
D(3) dopamine receptor
  Ki: 60.1 nM

## COc1ccc2onc(N3CCN(CCCCNC(=O)c4ccc5nccnc5c4)CC3)c2c1
D(2) dopamine receptor
  Ki: > 750 nM
D(3) dopamine receptor
  Ki: 220 nM

## COc1cccc2cc(C(=O)NCCCCN3CCN(c4nc5ccccc5[nH]4)CC3)oc12
D(2) dopamine receptor
  Ki: > 750 nM
D(3) dopamine receptor
  Ki: > 8500 nM

## COc1ccc2onc(N3CCN(CCCCNC(=O)c4cccc(-n5ccnc5)c4)CC3)c2c1
D(2) dopamine receptor
  Ki: > 1000 nM
D(3) dopamine receptor
  Ki: 5540 nM

## COc1ccc2onc(N3CCN(CCCCNC(=O)c4ccc5c(c4)OCO5)CC3)c2c1
D(2) dopamine receptor
  Ki: > 750 nM
D(3) dopamine receptor
  Ki: 118 nM

## COc1ccc2onc(N3CCN(CCCCNC(=O)c4cccc(-c5ncccn5)c4)CC3)c2c1
D(2) dopamine receptor
  Ki: > 1000 nM
D(3) dopamine receptor
  Ki: 1140 nM

## COc1ccccc1N1CCN(CCCCNC(=O)c2ccc3nccnc3c2)CC1
D(2) dopamine receptor
  Ki: 179 nM
D(3) dopamine receptor
  Ki: 77.9 nM

## COc1ccccc1N1CCN(CCCCNC(=O)c2ccc(-n3ccnc3)cc2)CC1
D(2) dopamine receptor
  Ki: 27.2 nM
D(3) dopamine receptor
  Ki: 4.79 nM

## COc1ccc2ccnc(N3CCN(CCCCNC(=O)c4cc5cccc(OC)c5o4)CC3)c2c1
D(3) dopamine receptor
  Ki: 102 nM

## COc1ccccc1N1CCN(CCCCNC(=O)c2ccc3c(c2)OCO3)CC1
D(2) dopamine receptor
  Ki: 86.2 nM
D(3) dopamine receptor
  Ki: 14.7 nM

## COc1ccccc1N1CCN(CCCCNC(=O)c2cc(-c3ccco3)[nH]n2)CC1
D(2) dopamine receptor
  Ki: 130 nM
D(3) dopamine receptor
  Ki: 19.3 nM

## COc1ccccc1N1CCN(CCCCNC(=O)c2cc3cccc(OC)c3o2)CC1
D(2) dopamine receptor
  Ki: 369 nM
D(3) dopamine receptor
  Ki: 25.5 nM

## COc1ccc2onc(N3CCN(CCCCNC(=O)c4ccc5nonc5c4)CC3)c2c1
D(2) dopamine receptor
  Ki: > 750 nM
D(3) dopamine receptor
  Ki: 85 nM

## COc1ccccc1N1CCN(CCCCNC(=O)c2ccc(N3CCOCC3)cc2)CC1
D(2) dopamine receptor
  Ki: 141 nM
D(3) dopamine receptor
  Ki: 23.9 nM

## COc1ccc2onc(N3CCN(CCCCNC(=O)c4cc(-c5ccco5)n[nH]4)CC3)c2c1
[1]
  Papp: 7.39 ×10⁻⁶ cm/s
D(2) dopamine receptor
  Ki: > 750 nM
[2]
  logP: 2.98
D(3) dopamine receptor
  Ki: 21.4 nM
[3]
  logD: 2.43

## COc1ccc2onc(N3CCN(CCCCNC(=O)c4cccc(N5CCOCC5)c4)CC3)c2c1
D(2) dopamine receptor
  Ki: > 1000 nM
D(3) dopamine receptor
  Ki: 1440 nM
